Like-named read-outs stand apart in the source and are kept apart here. Some results are limits rather than exact numbers.

Series [1] has as its system vaccinia virus WR. The experiment in a line: microbe, parasite or virus in culture. It is filed as cell-based. Conditions: for EC50: Orthopoxvirus vaccinia.
Series [2] concerns vaccinia virus WR. Description: microbe, parasite or virus in culture. Conditions: Orthopoxvirus vaccinia. Format: cell-based.
Series [3] has as its system vaccinia virus WR. Format: cell-based.
Series [4] can be described thus: WST-1 cytotoxicity assay. Conditions: African green monkey, BS-C-1 cells. On the technique in general: Tetrazolium assays rely on reduction of a dye to a coloured formazan, in cell work by metabolically active cells.
Series [5] relates to BS-C-1 cells. Description: WST-1 cytotoxicity assay. The settings on record: for tox 20 h TC50 / tox 72 h TC50 / tox 120 h TC50: Table 6; for CC50: Table 4.
Series [6] has as its target vaccinia virus DNA synthesis (viral DNA polymerase and its associated factors) (Vaccinia virus, UniProt P06856). Format: biochemical.
Series [7] can be described thus: Solubility in cell growth medium by light scattering. Conditions: concentrations of the activity assays. As to the method: These 16 compounds were tested for cell protection and cytotoxicity over longer times (48 h and 72 h). […] The solubility of the 16 compounds was verified in cell growth medium over the range of concentrations used in the activity assays.
Setting [8] is: 20 h, read-out: Cell Protection 20 h EC50.
[9] abbreviates: BSC-1, 20 h, read-out: cell prot EC50.
Setting [10] is: 20 h, read-out: Plaque Reduction 20 h EC50.
Where [11] appears, read: BSC-1, 20 h, read-out: plaque red EC50.
The mark [12] stands for this setting: read-out: Cytotoxicity 120 h CC50, 120 h.
Setting [13] is: read-out: DNA Synthesis Inhibition IC50.
The mark [14] stands for this setting: read-out: Cytotoxicity 20 h CC50, 20 h.

As for `Nc1ccn(C[C@@H](CO)OCP(=O)(O)O)c(=O)n1` [Cidofovir, reference compound], in series [1], the “Selectivity Index SI” value was over 18.9. Further, the EC50 was 132 µM in series [1] (setting [8]), 132 µM in series [1] (setting [9]), 50 µM in series [2] (setting [10]) and 50 µM in series [2] (setting [11]). Moreover, the “Effect of dsDNA” value in series [3] is reported as “No”. In series [3], the “trapped by dsDNA” value is recorded as “no”. This compound showed a cytotoxic concentration (CC50) at 20 h in series [4] of over 2500 µM. Also, the “tox 20 h TC50” value in series [5] (20 h) was over 500 µM. Besides, the “tox 72 h TC50” value in series [5] (72 h) is over 500 µM. In addition, the “tox 120 h TC50” value in series [5] (120 h) stood at 300 µM. Further, the CC50 was over 500 µM in series [5] (read-out: Cytotoxicity 72 h CC50, 72 h) and 300 µM in series [5] (setting [12]).

As for `Cc1cc(/N=C/c2cc(Cl)cc(Cl)c2O)no1` [Compound 6], the IC50 in series [6] (setting [13]) and in series [6] (read-out: DNA synth IC50) was 30 µM in each case. Further, the “Selectivity Index SI” value in series [1] is over 2.1. This compound returned a selectivity index in series [1] of over 2.1. For the same compound, the EC50 in series [1] (setting [8]) turned out to be 95 µM; in series [1] (setting [9]), 95 µM; in series [2] (setting [10]) it was 75 µM; in series [2] (setting [11]), 75 µM. The “Effect of dsDNA” value in series [3] is “No”. The “trapped by dsDNA” value in series [3] was “no”. Moreover, in series [4], the cytotoxic concentration (CC50) at 72 h is about 50 µM. In series [5] (20 h), the “tox 20 h TC50” value is over 200 µM. For the same compound, the “tox 72 h TC50” value in series [5] (72 h) was determined as 50 µM. Further, the “tox 120 h TC50” value in series [5] (120 h) stood at 20 µM. For the same compound, the CC50 in series [5] (setting [14]) is over 200 µM; in series [5] (setting [12]), 20 µM.

For the compound `Cc1c(/N=C/c2cc(Br)cc(Br)c2Br)cccc1C(=O)O` [Compound 7], the IC50 in series [6] (setting [13]) was found to be 26 µM. Further, in series [6] (read-out: DNA synth IC50), the half-inhibitory concentration (IC50) was 26 µM. In series [1], the “Selectivity Index SI” value is over 2 and the selectivity index is listed as over 2. For the same compound, in series [1] (setting [8]), the EC50 came to 100 µM. Also, the EC50 in series [1] (setting [9]) worked out at 100 µM. Also, in series [2] (setting [10]), the concentration for a half-maximal effect (EC50) amounted to 75 µM. Besides, in series [2] (setting [11]), the EC50 is 75 µM. For the same compound, in series [3], the “Effect of dsDNA” value is “No” and the “trapped by dsDNA” value is on record as “no”. In series [4], this compound gave a CC50 at 20 h of over 200 µM, a CC50 at 72 h of 38 µM and a CC50 at 120 h of 20 µM. For the same compound, the “tox 20 h TC50” value in series [5] (20 h) is over 200 µM. For the same compound, the “tox 72 h TC50” value in series [5] (72 h) turned out to be 38 µM. Besides, the “tox 120 h TC50” value in series [5] (120 h) was 20 µM.

`Cc1cc(OC(=O)c2ccco2)nc(SCc2c(Cl)cccc2Cl)n1` [Compound 8]: the half-maximal inhibitory concentration (IC50) in series [6] (setting [13]) and in series [6] (read-out: DNA synth IC50) was 52 µM each time. For the same compound, the “Selectivity Index SI” value in series [1] is listed as over 2. The compound also showed a selectivity index in series [1] of over 2. Also, the 50% effective concentration (EC50) in series [1] (setting [8]) is 100 µM; in series [1] (setting [9]), 100 µM; in series [2] (setting [10]) it was 75 µM; in series [2] (setting [11]), 75 µM. In addition, the “Effect of dsDNA” value in series [3] was “No”. Besides, in series [3], the “trapped by dsDNA” value was “no”. Besides, the “Solubility in cell growth medium” value in series [7] is given as “just slightly insoluble at the EC50”. In series [4], this compound gave a CC50 at 20 h of over 200 µM. Also, in series [5] (20 h), the “tox 20 h TC50” value is over 100 µM. Besides, the “tox 72 h TC50” value in series [5] (72 h) was over 100 µM. Besides, in series [5] (120 h), the “tox 120 h TC50” value was over 100 µM.

As to `O=C(Nc1ccccc1C(=O)O)OCC1c2ccccc2-c2ccccc21` [Compound 9], the IC50 in series [6] (setting [13]) and in series [6] (read-out: DNA synth IC50) was 26 µM throughout. Moreover, the “Selectivity Index SI” value in series [1] is recorded as over 1.9. The compound also came in with a selectivity index in series [1] of over 1.9. Also, the EC50 in series [1] (setting [8]) amounted to 104 µM; in series [1] (setting [9]) it was 104 µM; in series [2] (setting [10]), 75 µM; in series [2] (setting [11]) it was 75 µM. Besides, the “Effect of dsDNA” value in series [3] was “No”. Besides, the “trapped by dsDNA” value in series [3] was “no”. In series [4], this compound showed a CC50 at 72 h of 30 to 50 µM. The “tox 20 h TC50” value in series [5] (20 h) was over 200 µM. In series [5] (72 h), the “tox 72 h TC50” value was found to be 40 µM. In series [5] (120 h), the “tox 120 h TC50” value was found to be 20 µM. Moreover, the cytotoxic concentration (CC50) in series [5] (setting [14]) was over 200 µM; in series [5] (setting [12]), 20 µM.

For `CCS(=O)(=O)N1CCN=C1SCc1ccc(Cl)cc1Cl` [Compound 10], the 50% inhibitory concentration (IC50) in series [6] (setting [13]) and in series [6] (read-out: DNA synth IC50) was 188 µM in each case. Moreover, the EC50 in series [1] (setting [8]) was found to be 90 µM; in series [1] (setting [9]), 90 µM; in series [2] (setting [10]), 25 µM; in series [2] (setting [11]), 25 µM. The “Effect of dsDNA” value in series [3] was “No”. Moreover, in series [3], the “trapped by dsDNA” value is “no”. For the same compound, the “Solubility in cell growth medium” value in series [7] was “just slightly insoluble at the EC50”. This compound showed a half-maximal cytotoxic concentration (CC50) at 120 h in series [4] of 25 µM. Besides, in series [5] (20 h), the “tox 20 h TC50” value is 166 µM. For the same compound, in series [5] (setting [14]), the CC50 was found to be 166 µM.

A word on the EC50: it is the concentration needed to bring the measured effect to its halfway point. What is called CC50 is the concentration at which the toxic effect on the cells reaches its halfway point. The IC50 is the midpoint of a concentration-inhibition curve.
